Experimental data from EP0728012B1, “NOVEL GnRH ANALOGUES WITH ANTITUMOUR EFFECTS AND PHARMACEUTICAL COMPOSITIONS THEREOF” (Lovas, Sandor, priority 1994, dated 1996).

What was measured:
human tumour cell lines [1] = format: cell-based; conditions: 30 µM
Procedure: (§1) After being treated with trypsin, 300.000 each of MCF-7, MDA-MB-231, PC3 or Ishikawa cells, respectively, were passed into Petri dishes of 10 cm in diameter. Starting from the day following the setting, the cells were treated with 1-50 µM of the GnRH analogue in the exponential growth phase. During the experiment lasting for 5 days, the cells were treated in every two days with the peptide hormone dissolved in the nutrient medium, then the cell count was determined on the sixth day.

[2] = system: MCF-7 human mammary carcinoma cell line; assay: Inhibition of colony formation (dose-survival relation, Example 18); format: cell-based; conditions: for % Inhibition of colony formation: treated once
Procedure: (§2) In the case of cytostatics the cell-damaging effect is not cell-specific. […] One part of the arrested cells again go into the cycle, the other part may perish (apoptosis). […] The investigations were carried out on MCF-7 and MDA-MB-231 human mammary carcinoma cell lines, PC3 human prostate 15 carcinoma cell line and Ishikawa human endometrium carcinoma cell line. Three hundred cells were set into Petri dishes of 3.5 cm in diameter each. The treatment was carried out once, 24 hours following the explantation, then the colonies formed were counted after 9 to 12 days.

[3] = system: PC3 human prostate carcinoma cell line; assay: as above; format: cell-based
Procedure: as §2

[4] = system: Ishikawa human endometrium carcinoma cell line; assay: as above; format: cell-based
Procedure: as §2

[5] = system: MDA-MB-231 human mammary carcinoma cell line; assay: as above; format: cell-based
Procedure: as §2

MDA-MB-231 [6] = assay: Inhibition of colony formation by GnRH analogues (dose-survival, Example 48); format: cell-based, human
Procedure: (§3) The examination gives accurate information about the cell-damaging effect of the substance tested as a function of varying doses. The treatment was carried out once; the colonies formed from the surviving cells were counted after 8 - 12 days. […] A part of the arrested cells again entered the cycle, another part of them might be destroyed (apoptosis). […] In the case of a dose-response investigation, colonies containing less than 15 cells were not counted. 300 cells were put into each Petri dishes of 3.5 cm in diameter. The treatment was once carried out 24 hours after setting, then the colonies formed were counted after 8 - 12 days. The cells were treated once after 24 hours with 1-50 µM of various GnRH analogues of Examples above or with 1 - 50 µM of GnRH-III, respectively. The percentages of inhibition obtained on MCF-7, MDA-MB-231, PC3 and Ishikawa cells, respectively, together with the dose of the active agent used are shown in Table VIII.

MCF-7 [7] = assay: as above; format: cell-based, human; conditions: treated once
Procedure: as §3

PC3 [8] = assay: as above; format: cell-based, human; conditions: for % Inhibition of the colony formation: 50 µM
Procedure: as §3

Ishikawa [9] = assay: as above; format: cell-based, human; conditions: 50 µM
Procedure: as §3

human tumour cell lines [10] = assay: Inhibition of colony formation (Example 48), comparison with the control D-Trp^6-hGnRH; format: cell-based; conditions: data of Table VIII
Procedure: as §3
In these studies the D-Trp^6-hGnRH analogue (Sigma Co.) commonly used in the tumour therapy was employed as control.

MDA-MB-231 [11] = conditions: MDA-MB-231; 30 µM active substance; conjugate, treated once; listed as 8. P-GFLG-1004
Procedure: (§4) The procedure of treatment was as follows. After trypsinization the cells, 400,000 cells of MCF-7, MDA-MB-231 human mammary carcinoma, PC3 human prostate carcinoma or Ishikawa human endometrium tumour each were passed into Petri dishes of 10 cm in diameter. Starting from the day following transfer, the cells were treated with the substances to be tested in solution prepared with the nutrient medium during the exponential growth phase. […]

MCF-7 [12] = conditions: MCF-7; 30 µM active substance; conjugate, treated once; cell count on 7th day; listed as 8. P-GFLG-1004
Procedure: as §4

Ishikawa [13] = conditions: 30 µM active substance, conjugate, treated once
Procedure: The procedure of treatment was as follows. After trypsinization the cells, 400,000 cells of MCF-7, MDA-MB-231 human mammary carcinoma, PC3 human prostate carcinoma or Ishikawa human endometrium tumour each were passed into Petri dishes of 10 cm in diameter. Starting from the day following transfer, the cells were treated with the substances to be tested in solution prepared with the nutrient medium during the exponential growth phase. The cultures were treated with 1 to 50 µM (calculated for the total volume of the culture) or MI-1544 GnRH antagonist, MI-1892 chicken GnRH antagonist or SJ-1004 GnRH […] on the 7th day.

PC3 [14] = assay: In vitro inhibition of cell proliferation (Example 19); format: cell-based, human; conditions: 30 µM active substance, conjugate, treated once
Procedure: The procedure of treatment was as follows. After trypsinization the cells, 400,000 cells of MCF-7, MDA-MB-231 human mammary carcinoma, PC3 human prostate carcinoma or Ishikawa human endometrium tumour each were passed into Petri dishes of 10 cm in diameter. Starting from the day following transfer, the cells were treated with the substances to be tested in solution prepared with the nutrient medium during the exponential growth phase. The cultures were treated with 1 to 50 µM (calculated for the total volume of the culture) or MI-1544 GnRH antagonist, MI-1892 chicken GnRH antagonist or SJ-1004 GnRH antagonist analogues as well as synthetic lamprey GnRH-III hormone every two days and the cell count was determined on the 7th day.

MDA-MB-231 [15] = format: cell-based, human; conditions: MDA-MB-231 ER-negative; after 6 days' treatment; dose not stated
Procedure: as §1

MCF-7 [16] = format: cell-based, human; conditions: MCF-7 ER-positive; after 6 days' treatment; dose not stated
Procedure: as §1

With `NCCCC[C@H](NC(=O)[C@H](Cc1c[nH]c2ccccc12)NC(=O)[C@H](Cc1c[nH]cn1)NC(=O)[C@@H]1CCC(=O)N1)C(=O)N[C@@H](Cc1c[nH]cn1)C(=O)N[C@@H](CC(=O)O)C(=O)N[C@@H](Cc1c[nH]c2ccccc12)C(=O)N[C@@H](CCCCN)C(=O)N1CCC[C@H]1C(=O)NCC(N)=O` [6. Lys^4-GnRH-III, Lys^4-GnRH-III] the proliferation-inhibiting effect (human tumour cell lines [1]) was 27-31%, the “inhibition of colony formation” value ([2]; concentration not given) was 40% and the “inhibition of colony formation” value ([3]; concentration not given) was “did not show any inhibition”. For the same compound, the “inhibition of colony formation” value ([4]; concentration not given) was 21%, the “inhibition of colony formation” value ([5]; concentration not given) was 35% and the “% Inhibition of the colony formation” value (MDA-MB-231 [6]; 10 µM) was 18%. The “% Inhibition of the colony formation” value (MDA-MB-231 [6]; 50 µM) was 35%, the “% Inhibition of the colony formation” value (MDA-MB-231 [6]; 50 µM, listed as Example 31, 50 µM) was 35-42% and the “% Inhibition of the colony formation” value (MCF-7 [7]; 10 µM) was 15%. The “% Inhibition of the colony formation” value (MCF-7 [7]; 50 µM) was 40%, the “% Inhibition of the colony formation” value (PC3 [8]) was 0% and the “inhibition of colony formation” value (PC3 [8]; within the dose range used (1-50 µM)) was “did not influence”. The “% Inhibition of the colony formation” value (Ishikawa [9]) was 21% and the “inhibitory effect compared with the control D-Trp^6-hGnRH” value (human tumour cell lines [10]) was “exceeded the inhibitory effect of control”.
With “D-Phe^2,D-Trp^3,{D-Lys[n-poly(N-vinylpyrrolidone-co-maleic acid)-Gly-Phe-Leu-Gly]}^6,-GnRH [P-GFLG-1004]” the “% Inhibition of cell division (proliferation)” value (from here on “% Inhibition of cell division”) (MDA-MB-231 [11]) was 68%, the “% Inhibition of cell division” value (MCF-7 [12]) was 63% and the “% Inhibition of cell division” value (Ishikawa [13]) was 20%. For the same compound, the “% Inhibition of colony formation” value ([2]; 10 µM (active substance)) was 75%, the “% Inhibition of colony formation” value ([2]; 50 µM (active substance), listed as 8. P-GFLG-1004, 50 µM) was 95% and the “% Inhibition of colony formation” value ([3]; 30 µM) was 100%. The “% Inhibition of colony formation” value ([3]; 50 µM) was 100%, the “% Inhibition of colony formation” value ([4]; 10 µM) was 3% and the “% Inhibition of colony formation” value ([4]; 50 µM) was 46%. For the same compound, the “% Inhibition of colony formation” value ([5]; 10 µM) was 62%, the “% Inhibition of colony formation” value ([5]; 50 µM, listed as 8. P-GFLG-1004, 50 µM) was 92% and the “% Inhibition of the colony formation” value (PC3 [8]) was 31%. The “% Inhibition of cell division” value (PC3 [14]) was 35%.
In the case of “[D-Ser(tBu)]^6,desGly^10-hGnRH(1-9)EA [Buserelin]”, the “inhibition of cell proliferation” value (MDA-MB-231 [15]) is reported as 25-30% and the “inhibition (change in the cell count)” value (MCF-7 [16]) is reported as 5-15%.
